Results: patent US20180136227A1, “Treatment and Diagnosis of Hereditary Xerocytosis” (Universite d'aix Marseille, priority 2015, published 2018)

How the values were obtained:
[1] = test system: control red blood cells with WT Gardos channels; test: Vanadate-induced K+ loss and water loss in control red blood cells; type: cell-based, human
Description: Red blood cell cation content and volume measurements: Freshly drawn blood was washed 4 times at room temperature in medium containing in mM: NaCl 147, KCl 5, MgSO4 2, CaCl2 1, Hepes 10, buffered with NaOH pH 7.4 (320 mOsm). […] A few minutes before sampling time, 400 μl of cell suspension was taken to fill 3 nylon tubes that were centrifuged for 10 minutes at 4° C., 20,000. g at the exact sampling time. The supernatant was collected for extracellular ion content measurements. The pellet of red cells was extracted and immediately weighted. Then, dry weight was measured after overnight heating (80° C.). Water content was calculated with a correction of 3.64% corresponding to trapped medium between packed cells. Intracellular ions were extracted from dried pellets by overnight incubation at 4° C. in 5 ml milliRho water (Millipore). Na^+ and K^+ were measured by flame spectroscopy with a PFP7 Jenway. Statistics: Mann and Whitney test was used to compare control versus patient or control versus inhibitor in red blood cell experiments.

control red blood cells = test: Osmotic fragility test in hypotonic saline, control red blood cells; details: for hemolysis induced before the osmotic test: blood incubation 25 hours, control red blood cells
[2] = Sickle Cell disease, Ataga et al., 2011; cited from earlier work

Row | SMILES | inhibition at 10 µM ([1]; Homo sapiens, Erythrocyte, 1 h, read-out: inhibition of K+ loss) | effect on K+ loss and cell water loss ([1]; TRAM-34 10 μM, 5 mM vanadate, red blood cells with WT Gardos channels) | hemolysis induced before the osmotic test (control red blood cells; TRAM-34 10 μM) | inhibition at 0.4 µM ([1]; Homo sapiens, Erythrocyte, 1 h) | inhibition at 4 µM ([1]; Homo sapiens, Erythrocyte, 1 h) | toxicity in phase III study [2] | hemolysis induced before the osmotic test (control red blood cells; Senicapoc 4 or 0.4 μM) | effect on osmotic resistance (control red blood cells; Senicapoc 4 or 0.4 μM, blood stored 25 hours at 4° C., control)
1 | Clc1ccccc1C(c1ccccc1)(c1ccccc1)n1cccn1 [TRAM-34, 1-[(2-Chlorophenyl)diphenylmethyl]-1H-pyrazole] | 97 ± 1% | able to reduce | strong hemolysis |  |  |  |  | 
2 | NC(=O)C(c1ccccc1)(c1ccc(F)cc1)c1ccc(F)cc1 [Senicapoc, bis(4-fluorophenyl)phenyl acetamide] |  |  |  | 84 ± 4% | 95 ± 4% | non-toxic | not observed | no effect
